Measured values reported in patent US12679824B2 (Hoffmann-La Roche Inc., priority 2020, dated 2026).

system: Acinetobacter baumannii ATCC17961; assay: 90% Growth Inhibitory Concentration (IC90) determination, antimicrobial susceptibility testing; format: cell-based; settings: Acinetobacter baumannii, ATCC17961, 16 h, Acinetobacter baumannii ATCC17961; Iso-Sensitest broth; growth by optical density at 600 nm over 16h; concentration inhibiting 90% of the growth; read-out: ATCC 17961 IC90
Method in brief: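 Broth microdilution in Iso-Sensitest medium, compounds twofold diluted (e.g. 50–0.097 μM final), inoculum ~5×10^(5) CFU/ml, 35±2° C. OD600 was read every 20 min over 16 h. IC90 was derived from growth inhibition during logarithmic growth.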

| IC90 [nM] | Compound |
| --- | --- |
| 950 | Cn1c(-c2cn(-c3ccc(N)cn3)nc2C(F)(F)F)cnc1C(=O)Nc1ccc(C(=O)N[C@H]2C[C@H](N)C2)c(Cl)c1 [Example Z19, N-[4-[trans-(3-aminocyclobutyl)carbamoyl]-3-chloro-phenyl]-5-[1-(5-amino-2-pyridyl)-3-(trifluoromethyl)pyrazol-4-yl]-1-methyl-imidazole-2-carboxamide] |
| 930 | COc1ccnc(-n2cc(-c3cnc(C(=O)Nc4ccc(C(=O)N5CCN(C(=O)C6CCNCC6)CC5)c(Cl)c4)n3C)c(C(F)(F)F)n2)n1 [Example C5, N-[3-chloro-4-[4-(piperidine-4-carbonyl)piperazine-1-carbonyl]phenyl]-5-[1-(4-methoxypyrimidin-2-yl)-3-(trifluoromethyl)pyrazol-4-yl]-1-methyl-imidazole-2-carboxamide] |
| 410 | Cn1c(-c2cn(-c3ccc(N)cn3)nc2C(F)(F)F)cnc1C(=O)Nc1ccc(C(=O)NCC2CCN(C(=O)[C@@H]3C[C@@H](O)CN3)CC2)c(Cl)c1 [Example Z34, 5-[1-(5-amino-2-pyridyl)-3-(trifluoromethyl)pyrazol-4-yl]-N-[3-chloro-4-[[1-[(2S,4R)-4-hydroxyprolyl]-4-piperidyl]methylcarbamoyl]phenyl]-1-methyl-imidazole-2-carboxamide] |
| 290 | Cc1nc(-n2cc(-c3cnc(C(=O)Nc4ccc(C(=O)N5CCN(C(=O)C6CCNCC6)CC5)c(Cl)c4)n3C)c(C(F)(F)F)n2)ccc1N [Example Z86, 5-[1-(5-amino-6-methylpyridin-2-yl)-3-(trifluoromethyl)pyrazol-4-yl]-N-[3-chloro-4-[4-(piperidine-4-carbonyl)piperazine-1-carbonyl]phenyl]-1-methylimidazole-2-carboxamide] |
| 470 | COCCn1ncc(-n2cc(-c3cnc(C(=O)Nc4ccc(C(=O)N5CCN(C(=O)C6CCNCC6)CC5)c(Cl)c4)n3C)c(C(F)(F)F)n2)c1C [Example E2, N-[3-chloro-4-[4-(piperidine-4-carbonyl)piperazine-1-carbonyl]phenyl]-5-[1-[1-(2-methoxyethyl)-5-methyl-pyrazol-4-yl]-3-(trifluoromethyl)pyrazol-4-yl]-1-methyl-imidazole-2-carboxamide] |
| 380 | Cn1c(-c2cn(-c3cc(Cl)c(N)cn3)nc2C(F)(F)F)cnc1C(=O)Nc1ccc(C(=O)N2CCN(C(=O)C3CCNCC3)CC2)c(Cl)c1 [Example Z80, 5-[1-(5-amino-4-chloro-2-pyridyl)-3-(trifluoromethyl)pyrazol-4-yl]-N-[3-chloro-4-[4-(piperidine-4-carbonyl)piperazine-1-carbonyl]phenyl]-1-methyl-imidazole-2-carboxamide] |
| 1590 | Cn1c(-c2cn(-c3ccc(N)cn3)nc2C(F)(F)F)cnc1C(=O)Nc1ccc(C(=O)NCC2CC2N)c(Cl)c1 (centres unmarked) [Example Z18, N-[4-[(2-aminocyclopropyl)methylcarbamoyl]-3-chloro-phenyl]-5-[1-(5-amino-2-pyridyl)-3-(trifluoromethyl)pyrazol-4-yl]-1-methyl-imidazole-2-carboxamide] |
| 820 | Cn1c(-c2cn(-c3ccc(N)cn3)nc2C(F)(F)F)cnc1C(=O)Nc1ccc(C(=O)N2CCN(C(=O)[C@@H]3COCCN3)CC2)c(Cl)c1 [Example C8, 5-[1-(5-amino-2-pyridyl)-3-(trifluoromethyl)pyrazol-4-yl]-N-[3-chloro-4-[4-[(3S)-morpholine-3-carbonyl]piperazine-1-carbonyl]phenyl]-1-methyl-imidazole-2-carboxamide] |
| 1370 | Cn1c(-c2cn(-c3ccc(N)cn3)nc2C(F)(F)F)cnc1C(=O)Nc1ccc(C(=O)N2C[C@H]3CN[C@H]3C2)c(Cl)c1 [Example Z70, 5-[1-(5-amino-2-pyridyl)-3-(trifluoromethyl)pyrazol-4-yl]-N-[3-chloro-4-[(1R,5R)-3,6-diazabicyclo[3.2.0]heptane-3-carbonyl]phenyl]-1-methyl-imidazole-2-carboxamide] |
| 660 | Cn1c(-c2cn(-c3ccc(N)cn3)nc2C(F)(F)F)cnc1C(=O)Nc1ccc(C(=O)N[C@H]2C[C@H](NC(=O)[C@@H]3C[C@@H](O)CN3)C2)c(Cl)c1 [Example Z38, 5-[1-(5-amino-2-pyridyl)-3-(trifluoromethyl)pyrazol-4-yl]-N-[3-chloro-4-[trans-[3-[[(2S,4R)-4-hydroxyprolyl]amino]cyclobutyl]carbamoyl]phenyl]-1-methyl-imidazole-2-carboxamide] |
| 1310 | Cn1c(-c2cn(-c3ccc(N)cn3)nc2C(F)(F)F)cnc1C(=O)Nc1ccc(C(=O)N2CC3CNC3C2)c(Cl)c1 (centres unmarked) [Example Z59, 5-[1-(5-amino-2-pyridyl)-3-(trifluoromethyl)pyrazol-4-yl]-N-[3-chloro-4-(3,6-diazabicyclo[3.2.0]heptane-3-carbonyl)phenyl]-1-methyl-imidazole-2-carboxamide] |
| 580 | Cn1c(-c2cn(-c3ccc(N)cn3)nc2C(F)(F)F)cnc1C(=O)Nc1ccc(C(=O)N2CC[C@@H](CNC(=O)[C@@H]3C[C@@H](O)CN3)C2)c(Cl)c1 [Example Z39, 5-[1-(5-amino-2-pyridyl)-3-(trifluoromethyl)pyrazol-4-yl]-N-[3-chloro-4-[(3S)-3-[[[(2S,4R)-4-hydroxyprolyl]amino]methyl]pyrrolidine-1-carbonyl]phenyl]-1-methyl-imidazole-2-carboxamide] |
| 890 | Cn1c(-c2cn(-c3ccc(N)cn3)nc2C(F)(F)F)cnc1C(=O)Nc1ccc(C(=O)N2CCNCC23CC3)c(Cl)c1 [Example Z67, 5-[1-(5-amino-2-pyridyl)-3-(trifluoromethyl)pyrazol-4-yl]-N-[3-chloro-4-(4,7-diazaspiro[2.5]octane-4-carbonyl)phenyl]-1-methyl-imidazole-2-carboxamide] |
| 250 | COc1ccnc(-n2cc(-c3cnc(C(=O)Nc4ccc(C(=O)N5CCN(C(=O)C6CCNCC6)CC5)c(Cl)c4)n3C)c(C(F)(F)F)n2)c1 [Example A12, N-[3-chloro-4-[4-(piperidine-4-carbonyl)piperazine-1-carbonyl]phenyl]-5-[1-(4-methoxy-2-pyridyl)-3-(trifluoromethyl)pyrazol-4-yl]-1-methyl-imidazole-2-carboxamide] |
| 980 | Cn1c(-c2cn(-c3ccc(NC(=O)C4CCNCC4)cn3)nc2C(F)(F)F)cnc1C(=O)Nc1ccc(C(=O)N2CCN(C(=O)C3CCNCC3)CC2)c(Cl)c1 [Example Z88, N-[6-[4-[2-[[3-chloro-4-(4-isonipecotoylpiperazine-1-carbonyl)phenyl]carbamoyl]-3-methyl-imidazol-4-yl]-3-(trifluoromethyl)pyrazol-1-yl]-3-pyridyl]isonipecotamide] |
| 260 | Cn1c(-c2cn(-c3ccc(N)cn3)nc2C(F)(F)F)cnc1C(=O)Nc1ccc(C(=O)N2CCN(C(=O)CN3CCC(O)C3)CC2)c(Cl)c1 (centres unmarked) [Example C16, 5-[1-(5-amino-2-pyridyl)-3-(trifluoromethyl)pyrazol-4-yl]-N-[3-chloro-4-[4-[2-(3-hydroxypyrrolidin-1-yl)acetyl]piperazine-1-carbonyl]phenyl]-1-methyl-imidazole-2-carboxamide] |

| Compound | IC90 [nM] |
| --- | --- |
| Cn1c(-c2cn(-c3ccc(N)cn3)nc2C(F)(F)F)cnc1C(=O)Nc1ccc(C(=O)N2C3CCC2CNC3)c(Cl)c1 [Example Z62, 5-[1-(5-amino-2-pyridyl)-3-(trifluoromethyl)pyrazol-4-yl]-N-[3-chloro-4-(3,8-diazabicyclo[3.2.1]octane-8-carbonyl)phenyl]-1-methyl-imidazole-2-carboxamide] | 380 |

same assay, conditions: Acinetobacter baumannii, ATCC17961, 16 h, read-out: ATCC 17961 IC90

| Compound | IC90 [nM] |
| --- | --- |
| Cn1c(-c2cn(-c3ccc(N)cn3)nc2C(F)(F)F)cnc1C(=O)Nc1ccc(C(=O)NCCN)c(Cl)c1 [Example Z17, N-[4-(2-aminoethylcarbamoyl)-3-chloro-phenyl]-5-[1-(5-amino-2-pyridyl)-3-(trifluoromethyl)pyrazol-4-yl]-1-methyl-imidazole-2-carboxamide] | 990 |
| Cn1c(-c2cn(-c3ccc(N)cn3)nc2C(F)(F)F)cnc1C(=O)Nc1ccc(C(=O)N2CCN(C(=O)C3CCNCC3)CC2)c(Cl)c1 [Example C1, 5-[1-(5-Amino-2-pyridyl)-3-(trifluoromethyl)pyrazol-4-yl]-N-[3-chloro-4-[4-(piperidine-4-carbonyl)piperazine-1-carbonyl]phenyl]-1-methyl-imidazole-2-carboxamide] | 220 |
| Cn1c(-c2cn(-c3ccc(N)cn3)nc2C(F)(F)F)cnc1C(=O)Nc1ccc(C(=O)N2CCN(C(=O)[C@@H]3CC(O)CCN3)CC2)c(Cl)c1 (some centres unmarked) [Example J1] | 580 |
| Cn1c(-c2cn(-c3ncccn3)nc2C(F)(F)F)cnc1C(=O)Nc1ccc(C(=O)N2CCN(C(=O)C3CCNCC3)CC2)c(Cl)c1 [Example A1, N-[3-Chloro-4-[4-(piperidine-4-carbonyl)piperazine-1-carbonyl]phenyl]-1-methyl-5-[1-pyrimidin-2-yl-3-(trifluoromethyl)pyrazol-4-yl]imidazole-2-carboxamide] | 690 |
| CN(C)c1cnc(-n2cc(-c3cnc(C(=O)Nc4ccc(C(=O)N5CCN(C(=O)C6CCNCC6)CC5)c(Cl)c4)n3C)c(C(F)(F)F)n2)nc1 [Example B1, N-[3-Chloro-4-[4-(piperidine-4-carbonyl)piperazine-1-carbonyl]phenyl]-5-[1-[5-(dimethylamino)pyrimidin-2-yl]-3-(trifluoromethyl)pyrazol-4-yl]-1-methyl-imidazole-2-carboxamide] | 230 |
| Cn1c(-c2cn(-c3ccc(N)cn3)nc2C(F)(F)F)cnc1C(=O)Nc1ccc(C(=O)N2CC[C@H](CN)C2)c(Cl)c1 [Example Z1, N-[4-[(3R)-3-(aminomethyl)pyrrolidine-1-carbonyl]-3-chloro-phenyl]-5-[1-(5-amino-2-pyridyl)-3-(trifluoromethyl)pyrazol-4-yl]-1-methyl-imidazole-2-carboxamide] | 480 |
